From patent US20220062218A1, “COMPOSITIONS AND METHODS FOR TREATING DIABETES” (ENZYCHEM LIFESCIENCES, priority 2019, published 2022) come the findings set out here.

What all share (assay type): cell-based, rat
In test [1] the test system is INS-1 cells. The experiment in a line: Intracellular ROS generation in STZ-treated cells, flow cytometry with DCFH-DA and immunofluorescence. How it is done: For intracellular ROS analyses after administering PLAG, cells were incubated with 2 μM of DCFH-DA (2′,7′-dichlorodihydrofluorescein diacetate, Invitrogen, Carlsbad, CA, USA) for 30 min at 37 ° C. The analysis was performed using a BD FACS Verse flow cytometer (BD Biosciences) (FIGS. 4A and 4B), and expression of reactive oxygen species (ROS) was observed by immunofluorescence assay (FIG. 4C). We further examined cell apoptosis in cells co-treated with three types of ROS inhibitor (Apocynin, MitoTEMPO, NAC) to examine the association of intracellular ROS generation with pancreatic beta cell apoptosis. […] Apocynin (NADPH oxidase inhibitor), MitoTEMPO (mitochondrial ROS inhibitor), and N-acetyl-L-cysteine (NAC, an overall ROS inhibitor) were used as the ROS inhibitor. Data are presented as mean ±SD(* P<0.05, ** P<0.005, *** P <0.001 vs control, #P<0.05, ## P<0.005 vs STZ).
(§1) After treatment with PLAG and PLH(1-palmitoyl-2-linoleoyl-3-hydroxyl-rac-glycerol), apoptosis, intracellular ROS generation and glucose uptake were analyzed by flow cytometry (FIG. 7-B to 7-E). In addition, expression of GLUT2 in membrane fractions was analyzed by Western blotting (FIG.7-F). Data are presented as mean ±SD. ***P<0.001 vs. control, #P<0.05, ##P<0.005 vs. STZ. N.S.: No significance.
Cells were collected by trypsinization and washed with ice-cold PBS. For cell apoptosis analyses, INS-1 cells were incubated with annexin V (BD Biosciences, Franklin Lakes, N.J., USA) for 10 min at room temperature, and stained with 7-AAD (BD Biosciences). For intracellular reactive oxygen species (ROS) analyses, cells were incubated with 2 μM of DCFH-DA (2′,7′-dichlorodihydrofluorescein diacetate, Invitrogen, Carlsbad, Calif., USA) for 30 min at 37° C. The analysis was performed using a BD FACS Verse flow cytometer (BD Biosciences).

Test [2] concerns Glucose Transporter 2 (GLUT2). The test can be described thus: GLUT2 plasma membrane expression in STZ-treated cells (western blotting of membrane fractions, immunofluorescence). How it is done:
To investigate the effect of PLAG on GLUT2 plasma membrane localization, GLUT2 expression and Racl expression in membrane fractions were examined in the same manner as the Western protein blotting (FIGS. 3A to 3B).
In addition, the localization of GLUT2 was observed by immunofluorescence assay. Cells were grown on glass coverslips in 24-well plates and treated with STZ and PLAG. After washing with ice-cold PBS, the cells were fixed with 4% formaldehyde. Permeabilization was not performed to identify only proteins expressed in the cell membrane. The cells were incubated with anti-GLUT2 antibodies (dilution 1:500) and then stained with an Alexa Fluor 488-conjugated secondary antibody (Enzo Life Sciences, dilution 1:1000) and DAPI (Invitrogen). Stained cells were observed under a Zeiss LSM800 confocal microscope (Carl Zeiss, Jena, Germany) (FIG. 3-C).
as §1

Test [3] relates to INS-1 cells. The test can be described thus: Glucose uptake assay with 2-NBDG in INS-1 cells (flow cytometry, immunofluorescence). How it is done: 2-[N-(7-nitrobenz-2-oxa-1,3-diazol-4-yl)amino]-2-deoxy-D-glucose (2-NBDG, N13195, Thermo Scientific) was used for glucose uptake assays. Glucose uptake assays were performed using 2-NBDG conjugated with fluorescent dye. Intracellular 2-NBDG was measured at 60 min (FIG. 5A) and successively calculated from 5 min to 480 min after 2-NBDG treatment by How cytometry (FIG. 5B). Serum-containing complete medium was removed, and INS-1 cells were washed in PBS. The cells were cultured in glucose-free culture media for 1 h at 37° C. and then treated with 2-NBDG. Intracellular fluorescence was measured using a BD FACS Verse flow cytometer (BD Biosciences).
Intracellular 2-NBDG expression were also observed using immunofluorescence assay (FIG.5-C). Data are presented as mean ±SD. *P<0.05, **P<0.005, ***P<0.001 vs. control, #P<0.05, ##P<0.005 vs. STZ.
as §1

For test [4], the system named is INS-1 cells. The experiment in a line: High glucose (HG)-induced cell apoptosis in INS-1 cells, flow cytometry. As to conditions: pre-treated with 50 or 100 μg/mL of PLAG for 1 h, then 30 mM HG for 48 h. How it is done:
Effect of PLAG on pancreatic beta cell protection was investigated after HG-treatment. HG-induced cell apoptosis was analyzed using flow cytometry. INS-1 cells were pre-treated with 50 or 100 μg/mL of PLAG for lh, and then treated with 30 mM of HG for 48h. When INS-1 cells were maintained in a high glucose conditions, there was a significant increase in cell apoptosis compared to control cells.
INS-1 rat insulinoma pancreas beta cells were cultured in RPMI-1640 medium (Welgene, Gyeongsangbuk-do, Republic of Korea) containing 10% fetal bovine serum (Tissue Culture Biologicals, Long Beach, Calif., USA), 50 μM β-mercaptoethanol, 100 units/mL penicillin, and 100 μg/mL streptomycin (Antibiotic-Antimycotic Solution, Welgene). The cells were grown in a humidified atmosphere with 5% CO2 at 37° C. Chemicals and reagents
PLAG was obtained from Enzychem Lifesciences (Seoul, Republic of Korea). D-glucose was purchased from Sigma-Aldrich (St. Louis, Mo., USA). PLAG was dissolved in ethanol and the final working concentration was 0.1% (v/v). D-glucose was dissolved in cell culture medium.
Cells were collected by trypsinization and washed with ice-cold PBS. For cell apoptosis analyses, INS-1 cells were incubated with annexin V (BD Biosciences, Franklin Lakes, N.J., USA) for 10 min at room temperature, and stained with 7-AAD (BD Biosciences). […]

“Also recorded” adds a separate entry of the source.

For `CCCCC/C=C\C/C=C\CCCCCCCC(=O)OC(COC(C)=O)COC(=O)CCCCCCCCCCCCCCC` (racemic) [PLAG, 1-palmitoyl-2-linoleoyl-3-acetyl-rac-glycerol], the “decrease of ROS generation, PLAG vs PLH” value in test [1] (Example 8) is “more effective than PLH”. Also, the “intracellular ROS (dose dependence)” value in test [1] (flow cytometry) is reported as “dose-dependently decreased”. Further, in test [1] (flow cytometry and immunofluorescence), the “intracellular ROS (time course)” value is listed as “attenuated”. The “GLUT2 endocytosis / internalization, PLAG vs PLH” value in test [2] (Example 8, membrane fractions by western blotting) is given as “endocytosis of GLUT2 was promoted”. Moreover, the “GLUT2 internalization (immunofluorescence)” value in test [2] (STZ-treated cells, non-permeabilized, up to 60 min) is reported as “accelerated GLUT2 internalization was observed”. Further, in test [2] (STZ-treated cells, western blotting of membrane fractions, up to 60 min), the “membrane-expressed GLUT2 (time course)” value is “gradually decreased until 10 min, then recovered and returned to control levels at 60 min”. For the same compound, in test [3] (5 min to 480 min after 2-NBDG treatment, flow cytometry, vs 2-NBDG alone), the “glucose uptake (2-NBDG time course)” value is “glucose uptake was attenuated”. Moreover, in test [3] (Example 8, flow cytometry), the “glucose uptake (2-NBDG), PLAG vs PLH” value is 2-NBDG was slowly absorbed. For the same compound, the “intracellular 2-NBDG fluorescence intensity” value in test [3] (at 60 min, flow cytometry) is reported as “lower fluorescence intensity”. The “intracellular 2-NBDG (immunofluorescence)” value in test [3] (time course vs 2-NBDG-only treated group) is listed as “increased more slowly”. Further, in test [4], the HG-induced cell apoptosis entry is reported as “a decreased rate of apoptosis was observed; also recorded: dose-dependently decreased”.
